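A five-concentration, 48-hour dose response in 96-well plates underlies each endpoint, interpolated linearly between surrounding concentrations. TGI: total growth inhibition.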
Assays:
Experiment in all cases: NCI-60 cell line screen, 48 h
[1] = tested on: OVCAR-8 ovarian
[2] = tested on: HOP-62 NSCLC
[3] = tested on: SN12C renal
[4] = tested on: UACC-62 melanoma
[5] = tested on: M14 melanoma
[6] = tested on: 786-0 renal
[7] = tested on: SK-OV-3 ovarian
[8] = tested on: SF-268 CNS
[9] = tested on: PC-3 prostate
[10] = tested on: COLO 205 colon
[11] = tested on: RXF 393 renal
[12] = tested on: HCC-2998 colon
[13] = tested on: MCF7 breast
[14] = tested on: MDA-MB-435
[15] = tested on: SNB-19 CNS
[16] = tested on: NCI-H23 lung
[17] = tested on: KM12 colon
[18] = tested on: DU-145 prostate
[19] = tested on: MDA-MB-231 breast
[20] = tested on: SW-620 colon
[21] = tested on: A549 NSCLC
[22] = tested on: SR leukemia
[23] = tested on: HS 578T breast
[24] = tested on: NCI-H522 lung
[25] = tested on: SK-MEL-5 melanoma
[26] = tested on: SF-295 CNS
[27] = tested on: LOX IMVI melanoma
[28] = tested on: A498 renal
[29] = tested on: IGROV1 ovarian
[30] = tested on: SF-539 CNS
[31] = tested on: EKVX NSCLC
[32] = tested on: OVCAR-4 ovarian
[33] = tested on: HCT-116 colon
[34] = tested on: MDA-N
[35] = tested on: HCT-15 colon
[36] = tested on: MALME-3M melanoma
[37] = tested on: ACHN renal
[38] = tested on: T-47D breast
[39] = tested on: NCI-H460 lung
[40] = tested on: NCI/ADR-RES ovarian
[41] = tested on: MOLT-4 leukemia
[42] = tested on: BT-549 breast
[43] = tested on: SK-MEL-2 melanoma
[44] = tested on: U251 CNS
[45] = tested on: RPMI-8226 leukemia
[46] = tested on: OVCAR-5 ovarian
[47] = tested on: OVCAR-3 ovarian
[48] = tested on: HL-60(TB) leukemia
[49] = tested on: TK-10 renal
[50] = tested on: NCI-H226 lung
[51] = tested on: K-562 leukemia
[52] = tested on: UACC-257 melanoma
[53] = tested on: CAKI-1 renal
[54] = tested on: HT29 colon
[55] = tested on: SK-MEL-28 melanoma

Measured: TGI

COc1ccc(N2C(=O)C3c4[nH]c5ccc(OCc6ccccc6)cc5c4C4CCC(C(C)(C)C)CC4C3C2=O)cc1 (stereo not given)
59.4 µM: [32]
55.5 µM: [38]
54.1 µM: [36]
81.8 µM: [6]
60.4 µM: [44]
> 100 µM: all other assays above

— PubChem BioAssay (NCI)
